Values quoted from earlier work as cited in patent US20240416337A1, “Quantitation of chemical, biological and biochemical analytes on a flow assay using a smartphone” (Real-Time Analyzers, Inc., priority 2023, published 2024).

Tests used:
[1] = in vivo
[2] = blood compared with saliva

C=CC[C@@H]1/C=C(\C)C[C@H](C)C[C@H](OC)[C@H]2O[C@@](O)(C(=O)C(=O)N3CCCC[C@H]3C(=O)O[C@H](/C(C)=C/[C@@H]3CC[C@@H](O)[C@H](OC)C3)[C@H](C)[C@@H](O)CC1=O)[C@H](C)C[C@@H]2OC [tacrolimus]
passage through salivary glands into the oral cavity [1]: readily passes through salivary glands
tacrolimus concentration in the blood [2]: modestly higher than in saliva
ionization at physiological pH: does not ionize
